The results in this text go back to PubChem BioAssay AID504575 (Southern Research Specialized Biocontainment Screening …, 2011).

Molecules are shown by their SMILES.

The subject of the assay is MAGI cell cytotoxicity, 2% serum. Nature of the assay: MAGI cell cytotoxicity, X4 antiviral format, dose response, cytotoxicity control for HIV-1 antiviral lead project, CXCR4-tropic MAGI assay, 2% serum, set 2 (AID 504575).
As for `Cc1c2c(=O)n(-c3nc4ccccc4s3)nc-2cc(O)n1Cc1ccccc1Cl`, the TC50 is 32.9 µM.
The result for `COc1ccc(Cn2c(O)cc3nn(-c4nc5ccccc5s4)c(=O)c-3c2C)cc1` reads 41.1 µM.
The result for `COc1ccccc1Cn1c(O)cc2nn(-c3nc4ccccc4s3)c(=O)c-2c1C` reads 43.2 µM; that for `Cc1c2c(=O)n(-c3nc4ccccc4s3)nc-2cc(O)n1CCc1cccs1`, 74.8 µM.
To `Cc1c2c(=O)n(-c3nc4ccccc4s3)nc-2cc(O)n1CCC(C)C` belongs 65 µM; to `Cc1c2c(=O)n(-c3nc4ccccc4s3)nc-2cc(O)n1CCc1ccc(O)cc1`, 20.5 µM.
Turning to `COc1ccc(CCn2c(O)cc3nn(-c4nc5ccccc5s4)c(=O)c-3c2C)cc1`, the TC50 was 13.8 µM.
